Experiments:
[1] = Ability to promote differentiation of C3H10T1/2 stem cells to adipocytes using lipogenesis assay mediated through activation of Peroxisome proliferator activated receptor gamma
[2] = molecular target: T1, Peroxisome proliferator-activated receptor gamma (Homo sapiens, UniProt P37231); assay: Ability to promote differentiation of C3H10T1/2 stem cells to adipocytes using lipogenesis assay mediated through activation of Peroxisome proliferator activated receptor gamma
T1 sequence (P37231 whole entry): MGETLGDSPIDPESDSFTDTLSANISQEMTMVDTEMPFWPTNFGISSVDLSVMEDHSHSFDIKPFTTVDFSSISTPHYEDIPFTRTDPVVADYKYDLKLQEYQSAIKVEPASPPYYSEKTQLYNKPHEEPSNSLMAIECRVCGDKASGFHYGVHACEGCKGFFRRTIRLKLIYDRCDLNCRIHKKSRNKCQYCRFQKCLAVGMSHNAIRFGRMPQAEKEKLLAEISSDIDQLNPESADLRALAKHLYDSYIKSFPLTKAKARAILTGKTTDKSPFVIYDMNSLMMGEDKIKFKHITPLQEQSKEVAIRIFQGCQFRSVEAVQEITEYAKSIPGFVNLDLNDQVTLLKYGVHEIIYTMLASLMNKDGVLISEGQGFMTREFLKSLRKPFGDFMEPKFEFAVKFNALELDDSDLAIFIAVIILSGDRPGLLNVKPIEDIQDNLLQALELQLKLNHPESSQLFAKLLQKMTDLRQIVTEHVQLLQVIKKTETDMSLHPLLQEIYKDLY

Row | EC50 [1] | EC50 [2] | Structure (SMILES)
1 | 575 nM | – | CN(CCOc1ccc(CC(Nc2cccc3c2C(=O)c2ccccc2-3)C(=O)O)cc1)c1nc2ccccc2o1 (configuration not stated)
2 | – | 1230 nM | CN(CCOc1ccc(CC(Nc2ccccc2C(N=N)c2ccccc2)C(=O)O)cc1)c1ccccn1 (configuration not stated)
3 | 468 nM | – | CN(CCOc1ccc(CC(Nc2ccccc2Oc2ccccc2)C(=O)O)cc1)c1nc2ccccc2o1 (configuration not stated)
4 | 4.4 nM | – | CN(CCOc1ccc(C[C@H](Nc2ccccc2C(=O)c2ccccc2)C(=O)O)cc1)c1nc2ccccc2o1
5 | 1150 nM | – | CC1(COc2ccc(C[C@H](Nc3ccccc3C(=O)c3ccccc3)C(=O)O)cc2)CCCCC1
6 | 1150 nM | – | CN(CCOc1ccc(CC(Oc2ccccc2C(=O)c2ccccc2)C(=O)O)cc1)c1nc2ccccc2o1 (configuration not stated)
7 | 1320 nM | – | CN(CCOc1ccc(CC(Nc2ccccc2C(O)c2ccccc2)C(=O)O)cc1)c1ccccn1 (configuration not stated)
8 | 363 nM | – | Cc1c(C)c2c(c(C)c1O)CCC(C)(COc1ccc(C[C@H](Nc3ccccc3C(=O)c3ccccc3)C(=O)O)cc1)O2 (some centres not stated)
9 | 1510 nM | – | O=C(c1ccccc1)c1ccccc1N[C@@H](Cc1ccc(OCc2ccccc2)cc1)C(=O)O
10 | 47 nM | – | CN(CCOc1ccc(CC(Nc2ccccc2C(=O)Cc2ccccc2)C(=O)O)cc1)c1nc2ccccc2o1 (configuration not stated)
11 | 501 nM | – | CCc1ccc(CCOc2ccc(C[C@H](Nc3ccccc3C(=O)c3ccccc3)C(=O)O)cc2)nc1
12 | 2190 nM | – | CN(CCOc1ccc(CC(Nc2ccccc2S(=O)(=O)c2ccccc2)C(=O)O)cc1)c1nc2ccccc2o1 (configuration not stated)
